Test results published in the supplement of paper PMC10307832.

Legend:
Test in all cases: relative viability (nuclei count vs DMSO), 5 days (fraction); higher = more cells survive
HCC-827 = test system: HCC-827
How it was run: (§1)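 Medians of duplicate plates are given as relative viability. That measure is the nuclei count in treated wells divided by the count in vehicle wells. Counts were taken on 4× images of lung cancer cell lines in 1536-well plates, 5 days after pin-tool dosing the day after seeding with one drug alone or a fixed anchor-drug dose plus five library-drug doses (not always all listed) in √10 steps.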

LCLC-97TM1 = test system: LCLC-97TM1
How it was run: as §1

NCI-H650 = test system: NCI-H650
How it was run: as §1

NCI-H2023 = test system: NCI-H2023
How it was run: as §1

NCI-H596 = test system: NCI-H596
How it was run: as §1

HCC-78 = test system: HCC-78
How it was run: as §1

NCI-H1437 = test system: NCI-H1437
How it was run: as §1

201T = test system: 201T
How it was run: as §1

NCI-H2170 = test system: NCI-H2170
How it was run: as §1

SK-MES-1 = test system: SK-MES-1
How it was run: as §1

RERF-LC-KJ = test system: RERF-LC-KJ
How it was run: as §1

NCI-H2126 = test system: NCI-H2126
How it was run: as §1

LOU-NH91 = test system: LOU-NH91
How it was run: as §1

NCI-H727 = test system: NCI-H727
How it was run: as §1

NCI-H2405 = test system: NCI-H2405
How it was run: as §1

NCI-H1755 = test system: NCI-H1755
How it was run: as §1

NCI-H2085 = test system: NCI-H2085
How it was run: as §1

NCI-H1792 = test system: NCI-H1792
How it was run: as §1

COCC1(CO)C(=O)C2CCN1CC2 (stereo unspecified) [PRIMA-1MET] + CS(=O)(=O)CCNCc1ccc(-c2ccc3ncnc(Nc4ccc(OCc5cccc(F)c5)c(Cl)c4)c3c2)o1 [Lapatinib] (partner 2 µM)
relative viability (HCC-827; first compound 0.2 µM): 0.22 | relative viability (HCC-827; first compound 0.6325 µM): 0.164 | relative viability (HCC-827; first compound 2 µM): 0.198 | relative viability (HCC-827; first compound 6.325 µM): 0.184 | relative viability (HCC-827; first compound 20 µM): 0.198 | relative viability (LCLC-97TM1; first compound 0.2 µM): 0.776 | relative viability (LCLC-97TM1; first compound 2 µM): 0.998 | relative viability (LCLC-97TM1; first compound 6.325 µM): 1.08 | relative viability (LCLC-97TM1; first compound 20 µM): 0.148 | relative viability (NCI-H650; first compound 0.2 µM): 1.24 | relative viability (NCI-H650; first compound 2 µM): 0.914 | relative viability (NCI-H650; first compound 6.325 µM): 0.871 | relative viability (NCI-H650; first compound 20 µM): 0.0916 | relative viability (NCI-H2023; first compound 0.2 µM): 0.991 | relative viability (NCI-H2023; first compound 0.6325 µM): 0.26 | relative viability (NCI-H2023; first compound 2 µM): 0.639 | relative viability (NCI-H2023; first compound 6.325 µM): 0.893 | relative viability (NCI-H2023; first compound 20 µM): 0.841 | relative viability (NCI-H596; first compound 0.2 µM): 1.14 | relative viability (NCI-H596; first compound 0.6325 µM): 1.01 | relative viability (NCI-H596; first compound 2 µM): 0.77 | relative viability (NCI-H596; first compound 6.325 µM): 1.22 | relative viability (NCI-H596; first compound 20 µM): 1.02 | relative viability (HCC-78; first compound 0.2 µM): 0.984 | relative viability (HCC-78; first compound 0.6325 µM): 0.539 | relative viability (HCC-78; first compound 6.325 µM): 0.78 | relative viability (HCC-78; first compound 20 µM): 0.686 | relative viability (NCI-H1437; first compound 0.2 µM): 0.936 | relative viability (NCI-H1437; first compound 0.6325 µM): 0.703 | relative viability (NCI-H1437; first compound 2 µM): 0.765 | relative viability (NCI-H1437; first compound 6.325 µM): 0.82 | relative viability (NCI-H1437; first compound 20 µM): 0.694 | relative viability (201T; first compound 0.2 µM): 1.15 | relative viability (201T; first compound 0.6325 µM): 0.695 | relative viability (201T; first compound 2 µM): 0.834 | relative viability (201T; first compound 6.325 µM): 1.07 | relative viability (201T; first compound 20 µM): 1.01 | relative viability (NCI-H2170; first compound 0.2 µM): 0.263 | relative viability (NCI-H2170; first compound 0.6325 µM): 0.236 | relative viability (NCI-H2170; first compound 2 µM): 0.237 | relative viability (NCI-H2170; first compound 6.325 µM): 0.276 | relative viability (NCI-H2170; first compound 20 µM): 0.273 | relative viability (SK-MES-1; first compound 0.2 µM): 0.571 | relative viability (SK-MES-1; first compound 0.6325 µM): 0.365 | relative viability (SK-MES-1; first compound 2 µM): 0.448 | relative viability (SK-MES-1; first compound 6.325 µM): 0.477 | relative viability (SK-MES-1; first compound 20 µM): 0.516 | relative viability (RERF-LC-KJ; first compound 0.2 µM): 1.01 | relative viability (RERF-LC-KJ; first compound 0.6325 µM): 0.86 | relative viability (RERF-LC-KJ; first compound 2 µM): 0.874 | relative viability (RERF-LC-KJ; first compound 6.325 µM): 0.928 | relative viability (RERF-LC-KJ; first compound 20 µM): 0.883 | relative viability (NCI-H2126; first compound 0.2 µM): 0.875 | relative viability (NCI-H2126; first compound 0.6325 µM): 0.757 | relative viability (NCI-H2126; first compound 2 µM): 0.733 | relative viability (NCI-H2126; first compound 6.325 µM): 0.815 | relative viability (NCI-H2126; first compound 20 µM): 0.773 | relative viability (LOU-NH91; first compound 0.2 µM): 0.806 | relative viability (LOU-NH91; first compound 0.6325 µM): 0.715 | relative viability (LOU-NH91; first compound 2 µM): 0.656 | relative viability (LOU-NH91; first compound 6.325 µM): 0.692 | relative viability (LOU-NH91; first compound 20 µM): 0.496 | relative viability (NCI-H727; first compound 0.2 µM): 0.559 | relative viability (NCI-H727; first compound 0.6325 µM): 0.769 | relative viability (NCI-H727; first compound 2 µM): 0.503 | relative viability (NCI-H727; first compound 6.325 µM): 0.624 | relative viability (NCI-H727; first compound 20 µM): 0.113 | relative viability (NCI-H2405; first compound 0.2 µM): 0.77 | relative viability (NCI-H2405; first compound 0.6325 µM): 1.17 | relative viability (NCI-H2405; first compound 6.325 µM): 0.85 | relative viability (NCI-H2405; first compound 20 µM): 0.0796 | relative viability (NCI-H1755; first compound 0.2 µM): 1.04 | relative viability (NCI-H1755; first compound 0.6325 µM): 0.901 | relative viability (NCI-H1755; first compound 2 µM): 0.846 | relative viability (NCI-H1755; first compound 6.325 µM): 1.03 | relative viability (NCI-H1755; first compound 20 µM): 0.907 | relative viability (NCI-H2085; first compound 0.2 µM): 0.814 | relative viability (NCI-H2085; first compound 0.6325 µM): 0.591 | relative viability (NCI-H2085; first compound 2 µM): 0.523 | relative viability (NCI-H2085; first compound 6.325 µM): 0.54 | relative viability (NCI-H2085; first compound 20 µM): 0.493 | relative viability (NCI-H1792; first compound 0.2 µM): 0.825 | relative viability (NCI-H1792; first compound 0.6325 µM): 0.769 | relative viability (NCI-H1792; first compound 2 µM): 0.868 | relative viability (NCI-H1792; first compound 6.325 µM): 0.963 | relative viability (NCI-H1792; first compound 20 µM): 0.807
